From patent publication US10561637B2, “Methods for treating angiogenesis related disorder” (KAOHSIUNG MEDICAL UNIVERSITY, priority 2017, dated 2020)
Entries after “also recorded” stand apart in the source; their conditions may differ.

Assays:
human EPCs [1] = test: Sulforhodamine B (SRB) cell proliferation assay in human EPCs; format: cell-based; conditions: 48th hour
Protocol: (§1) Mitella formosana (Hayata) Masam. is a perennial herb of Saxifragaceae, a native plant of Taiwan. In the present invention, three kinds of tannin compounds, PGG, tellimagrandin I, and tellimagrandin II, found in the compounds extracted from Mitella formosana by using Bioassay-guided fractionation, inhibited the proliferation of EPCs in a concentration dependent manner. […] The results of tube formation assay confirmed that these three compounds (10 μM) inhibited the tube formation of EPCs in different degrees (FIG. 2B). […] Importantly, CAM-angiogenesis model and mice Matrigel-plus model were used to verify the anti-angiogenic effect of tellimagrandin II in vivo.

human EPCs [2] = test: tube formation assay (capillary-like structures) in human EPCs; format: cell-based; conditions: 5 and 10 μM, 24 hours, phase-contrast microscope
Text: The data of five independent experiments are expressed as the mean±mean standard deviation. As compared with the control group, * means p<0.05; *** means p<0.001.
as §1

human EPCs [3] = test: lactate dehydrogenase (LDH) release assay in human EPCs; format: cell-based; conditions: 10-20 μM, 24th hour
Text: The data of five independent experiments are expressed as the mean±mean standard deviation. As compared with the control group, * means p<0.05; ** means p<0.05; *** means p<0.001.
as §1

chicken embryo = test: chorioallantoic membrane (CAM) angiogenesis assay; format: in vivo; conditions: CAM-angiogenesis model
Text: (§2) Sorafenib is a multiple kinase inhibitor, which is used as a positive control in the in vivo anti-angiogenesis assay.
as §1

mice = test: Matrigel plug model of capillary formation; format: in vivo
Text: as §2, §1

Row | Structure (SMILES) | proliferation of EPCs (human EPCs [1]) | tube formation of EPCs, concentration dependence (human EPCs [2]) | LDH release (cytotoxicity) (human EPCs [3]) | in vivo neovascularization in the chicken embryo (chicken embryo) | formation of capillaries in mice (mice)
1 | O=C(OC[C@H]1O[C@@H](OC(=O)c2cc(O)c(O)c(O)c2)[C@H](OC(=O)c2cc(O)c(O)c(O)c2)[C@@H](OC(=O)c2cc(O)c(O)c(O)c2)[C@@H]1OC(=O)c1cc(O)c(O)c(O)c1)c1cc(O)c(O)c(O)c1 [PGG, 1,2,3,4,6-penta-O-galloyl-β-D-glucose] | suppress the proliferation of EPCs in a concentration dependent manner | inhibited the tube formation of EPCs in a concentration dependent manner |  |  | 
2 | O=C(OC1O[C@@H]2COC(=O)c3cc(O)c(O)c(O)c3-c3c(cc(O)c(O)c3O)C(=O)O[C@H]2[C@H](OC(=O)c2cc(O)c(O)c(O)c2)[C@H]1OC(=O)c1cc(O)c(O)c(O)c1)c1cc(O)c(O)c(O)c1 (some centres unmarked) [tellimagrandin II] | suppress the proliferation of EPCs in a concentration dependent manner; also recorded: exhibited the most potent effect | inhibited the tube formation of EPCs in a concentration dependent manner | LDH release was not induced | inhibited in vivo neovascularization in the chicken embryo in a concentration dependent manner | effectively inhibited the formation of capillaries in mice
3 | O=C(O[C@H]1[C@@H]2OC(=O)c3cc(O)c(O)c(O)c3-c3c(cc(O)c(O)c3O)C(=O)OC[C@H]2OC(O)[C@@H]1OC(=O)c1cc(O)c(O)c(O)c1)c1cc(O)c(O)c(O)c1 (some centres unmarked) [tellimagrandin I] | suppress the proliferation of EPCs in a concentration dependent manner |  |  |  | 
